Data on one molecule can be found in patent US8741875B2, “Compounds as receptor modulators with therapeutic utility” (Allergan, Inc., priority 2009, dated 2014).

One assay deals with T1, human S1P1 receptor (Homo sapiens, UniProt P21453).
T1 construct: expressed in transfected cells; membranes used
Description: GTP γ35S binding assay for S1P1 activity. It counts as biochemical. Particulars: membranes, 30 min at 25° C., read-out: S1P1 EC50 (Activity potency: S1P1 receptor from GTP γ35S). The procedure:
Compounds were tested for S1P1 activity using the GTP γ^35S binding assay. These compounds may be assessed for their ability to activate or block activation of the human S1P1 receptor in cells stably expressing the S1P1 receptor.
GTP γ^35S binding was measured in the medium containing (mM) HEPES 25, pH 7.4, MgCl2 10, NaCl 100, dithitothreitol 0.5, digitonin 0.003%, 0.2 nM GTP γ^35S, and 5 μg membrane protein in a volume of 150 μl. Test compounds were included in the concentration range from 0.08 to 5,000 nM unless indicated otherwise. Membranes were incubated with 100 μM 5′-adenylylimmidodiphosphate for 30 min, and subsequently with 10 μM GDP for 10 min on ice. Drug solutions and membrane were mixed, and then reactions were initiated by adding GTP γ^35S and continued for 30 min at 25° C. Reaction mixtures were filtered over Whatman GF/B filters under vacuum, and washed three times with 3 mL of ice-cold buffer (HEPES 25, pH7.4, MgCl2 10 and NaCl 100). Filters were dried and mixed with scintillant, and counted for ^35S activity using a β-counter. Agonist-induced GTP γ^35S binding was obtained by subtracting that in the absence of agonist. Binding data were analyzed using a non-linear regression method. In case of antagonist assay, the reaction mixture contained 10 nM S1P in the presence of test antagonist at concentrations ranging from 0.08 to 5000 nM.
(GTPγS is a poorly hydrolysed GTP analogue; its binding reports G protein activation.)

Another assay deals with blood lymphocytes. Put plainly: Lymphopenia Assay in Mice (blood lymphocyte depletion). It counts as in vivo, female C57BL6 mice. The following applies: FIG. 1. The procedure:
A lymphopenia assay in mice; as previously described, was employed to measure the in vivo blood lymphocyte depletion after dosing with the test compound: [3-({4-[(5-phenylpentyl)oxy]-3-(2-thienyl)benzyl}amino)propyl]phosphonic acid Compound 6. This S1P1 modulator, [3-({4-[(5-phenylpentyl)oxy]-3-(2-thienyl)benzyl}amino)propyl]phosphonic acid Compound 6 is useful for S1P-related diseases and exemplified by the lymphopenia in vivo response.
Test drugs, were prepared in a solution containing 3% (w/v) 2-hydroxy propyl β-cyclodextrin (HPBCD) and 1% DMSO to a final concentration of 1 mg/ml, and subcutaneously injected to female C57BL6 mice (CHARLES RIVERS) weighing 20-25 g at the dose of 10 mg/Kg. Blood samples were obtained by puncturing the submandibular skin with a Goldenrod animal lancet at different time intervals such as: 24, 48, 72 (and 96 h) post drug application. Blood was collected into microvettes (SARSTEDT) containing EDTA tripotassium salt. Lymphocytes in blood samples were counted using a HEMAVET Multispecies Hematology System, HEMAVET HV950FS (Drew Scientific Inc.). (Hale, J. et al Bioorg. & Med. Chem. Lett. 14 (2004) 3351

Structures are written as SMILES.

T1 sequence (P21453 whole entry): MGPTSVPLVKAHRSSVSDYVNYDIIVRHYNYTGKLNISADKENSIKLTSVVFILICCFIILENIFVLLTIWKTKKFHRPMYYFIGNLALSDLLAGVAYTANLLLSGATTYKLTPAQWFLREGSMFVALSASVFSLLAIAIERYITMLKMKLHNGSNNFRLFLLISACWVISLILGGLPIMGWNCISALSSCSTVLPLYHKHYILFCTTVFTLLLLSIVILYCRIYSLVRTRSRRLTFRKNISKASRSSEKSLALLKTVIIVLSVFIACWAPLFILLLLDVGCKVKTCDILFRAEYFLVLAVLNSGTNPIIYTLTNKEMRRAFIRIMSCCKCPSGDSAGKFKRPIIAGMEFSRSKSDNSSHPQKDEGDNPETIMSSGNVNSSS

Usually EC50 stands for the midpoint of the concentration-response curve. In the case of `O=P(O)(O)CCCNCc1ccc(OCCCCCc2ccccc2)c(-c2cccs2)c1` [Compound 6, [3-({4-[(5-phenylpentyl)oxy]-3-(2-thienyl)benzyl}amino)propyl]phosphonic acid], the half-maximal effective concentration (EC50) on human S1P1 receptor was determined as 1.3 nM. Besides, the Lymphopenia result in the assay with blood lymphocytes (10 mg/kg in mice (24, 48, 72 Hours)) is on record as “induced”. For the same molecule, the “lymphocyte count (number of lymphocytes)” value in the assay on blood lymphocytes (mice, 10 mg/Kg subcutaneously, after 24 hours) was < 1 10^3/μL blood.
